# Measured values: patent US20240199558A1, “2,4,6-TRISUBSTITUTED 1,3,5-TRIAZINES AS MODULATORS OF CX3CR1” (ASTRAZENECA AB, priority 2022, published 2024)
# Biological target: CX3CR1 (Homo sapiens (Human), UniProt P49238)
# Experiment: hCX3CR1 [3H]-AZD8797 competitive binding assay (filter)
# Conditions: CHO-hCX3CR1 membranes, 2 nM [3H]-AZD8797
# Experimental: hCX3CR1 [^3H]-AZD8797 Competitive Binding Assay (Filter)
# CHO-hCX3CR1 membranes (9 μg per well) together with 2 nM [^3H]-AZD8797 and different concentrations of competitor compound were incubated in 25 mM HEPES (pH 7.4), 10 mM MgCl2, 1 mM CaCl2) and 0.5% BSA in a Corning polystyrene flat-bottom 96-well plate. The plate was incubated for 2 h at room temperature before free radioligand was separated from bound by vacuum filtration on to a Multiscreen HTS+HiFlow FB (Millipore) filter plate, using a Biomek FX (Beckman Coulter). The filter plate was washed in ice-cold 25 mM HEPES (pH 7.4), 5 mM MgCl2, 1 mM CaCl2) and 500 mM NaCl and dried at 50° C. for 1 h. Scintillation cocktail, Optiphase Supermix (PerkinElmer) was added to each well and the radioactivity was measured using a MicroBeta Trilux reader (PerkinElmer). The DMSO concentration was held constant at 1%.
# CX3CR1, sequence (P49238 whole entry): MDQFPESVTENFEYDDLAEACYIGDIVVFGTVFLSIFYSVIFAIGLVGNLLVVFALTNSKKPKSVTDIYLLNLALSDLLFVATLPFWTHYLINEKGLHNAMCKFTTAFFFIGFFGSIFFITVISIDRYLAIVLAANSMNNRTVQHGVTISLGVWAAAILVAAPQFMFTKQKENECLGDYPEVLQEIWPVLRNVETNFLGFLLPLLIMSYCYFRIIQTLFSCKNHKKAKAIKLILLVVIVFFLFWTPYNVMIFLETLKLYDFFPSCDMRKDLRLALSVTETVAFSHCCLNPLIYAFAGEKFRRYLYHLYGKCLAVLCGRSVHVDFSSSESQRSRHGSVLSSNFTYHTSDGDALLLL
row,Structure (SMILES),IC50
1,"CCOc1ccc([C@H](C)Cc2nc(N[C@@H](CO)CC(C)C)nc(NS(C)(=O)=O)n2)cn1 (single isomer, unassigned) [Example 27, N-(4-((R*)-2-(6-Ethoxypyridin-3-yl)propyl)-6-(((R)-1-hydroxy-4-methylpentan-2-yl)amino)-1,3,5-triazin-2-yl)methanesulfonamide]",138 nM
2,"CC(C)C[C@H](CO)Nc1nc(CC(C)c2ccc(OCCN3CCOCC3)cc2)nc(NS(C)(=O)=O)n1 (stereo partly drawn) [Example 115, N-(4-(((R)-1-Hydroxy-4-methylpentan-2-yl)amino)-6-(2-(4-(2-morpholinoethoxy)phenyl)propyl)-1,3,5-triazin-2-yl)methanesulfonamide]",160 nM
3,"CC(C)C[C@H](CO)Nc1nc(CC(C)c2ccc(OC(C)C)nc2)nc(NS(C)(=O)=O)n1 (stereo partly drawn) [Example 159, N-(4-(((R)-1-Hydroxy-4-methylpentan-2-yl)amino)-6-(2-(6-isopropoxypyridin-3-yl)propyl)-1,3,5-triazin-2-yl)methanesulfonamide]",264 nM
4,"COc1ccc([C@H](C)Cc2nc(N[C@@H](CO)CC(C)C)nc(NS(C)(=O)=O)n2)cc1F (single isomer, unassigned) [Example 19, N-(4-((R*)-2-(3-Fluoro-4-methoxyphenyl)propyl)-6-(((R)-1-hydroxy-4-methylpentan-2-yl)amino)-1,3,5-triazin-2-yl)methanesulfonamide]",33 nM
5,"CC(C)C[C@H](CO)Nc1nc(CC(C)c2ccc3ncoc3c2)nc(NS(C)(=O)=O)n1 (stereo partly drawn) [Example 61, N-(4-(2-(Benzo[d]oxazol-6-yl)propyl)-6-(((R)-1-hydroxy-4-methylpentan-2-yl)amino)-1,3,5-triazin-2-yl)methanesulfonamide]",76 nM
6,"CC(C)C[C@H](CO)Nc1nc(C[C@@H](C)c2cc(F)c(Cl)c(F)c2)nc(NS(C)(=O)=O)n1 (single isomer, unassigned) [Example 31, N-(4-((R*)-2-(4-Chloro-3,5-difluorophenyl)propyl)-6-(((R)-1-hydroxy-4-methylpentan-2-yl)amino)-1,3,5-triazin-2-yl)methanesulfonamide]",287 nM
7,"CC(C)C[C@H](CO)Nc1nc(C[C@@H](C)c2c(F)cc(F)cc2F)nc(NS(C)(=O)=O)n1 (single isomer, unassigned) [Example 40, N-(4-(((R)-1-Hydroxy-4-methylpentan-2-yl)amino)-6-((R*)-2-(2,4,6-trifluorophenyl)propyl)-1,3,5-triazin-2-yl)methanesulfonamide]",65 nM
8,"CC(C)C[C@H](CO)Nc1nc(C[C@@H](C)c2c(F)cccc2F)nc(NS(C)(=O)=O)n1 (single isomer, unassigned) [Example 78, N-(4-((R*)-2-(2,6-Difluorophenyl)propyl)-6-(((R)-1-hydroxy-4-methylpentan-2-yl)amino)-1,3,5-triazin-2-yl)methanesulfonamide]",22 nM
9,"CC(C)C[C@H](CO)Nc1nc(CC(C)c2ccc(F)c(CO)c2)nc(NS(C)(=O)=O)n1 (stereo partly drawn) [Example 122, N-(4-(2-(4-Fluoro-3-(hydroxymethyl)phenyl)propyl)-6-(((R)-1-hydroxy-4-methylpentan-2-yl)amino)-1,3,5-triazin-2-yl)methanesulfonamide]",120 nM
10,"CC(C)C[C@H](CO)Nc1nc(CC(C)c2ccc(CCN3CCOCC3)cc2)nc(NS(C)(=O)=O)n1 (stereo partly drawn) [Example 138, N-(4-(((R)-1-Hydroxy-4-methylpentan-2-yl)amino)-6-(2-(4-(2-morpholinoethyl)phenyl)propyl)-1,3,5-triazin-2-yl)methanesulfonamide]",119 nM
11,"CCC(Cc1nc(N[C@@H](CO)CC(C)C)nc(NS(C)(=O)=O)n1)c1cnc(OC)cc1F (stereo partly drawn) [Example 49, N-(4-(2-(4-Fluoro-6-methoxypyridin-3-yl)butyl)-6-(((R)-1-hydroxy-4-methylpentan-2-yl)amino)-1,3,5-triazin-2-yl)methanesulfonamide]",474 nM
12,"COc1cccc(C(C)Cc2nc(N[C@@H](CO)CC(C)C)nc(NS(C)(=O)=O)n2)c1O (stereo partly drawn) [Example 139, N-(4-(2-(2-Hydroxy-3-methoxyphenyl)propyl)-6-(((R)-1-hydroxy-4-methylpentan-2-yl)amino)-1,3,5-triazin-2-yl)methanesulfonamide]",469 nM
13,"CC(C)C[C@H](CO)Nc1nc(CC(C)c2ccc3c(c2)OCC(=O)N3C)nc(NS(C)(=O)=O)n1 (stereo partly drawn) [Example 129, N-(4-(((R)-1-Hydroxy-4-methylpentan-2-yl)amino)-6-(2-(4-methyl-3-oxo-3,4-dihydro-2H-benzo[b][1,4]oxazin-7-yl)propyl)-1,3,5-triazin-2-yl)methanesulfonamide]",169 nM
14,"CC(C)C[C@H](CO)Nc1nc(C[C@H](C)c2cc(F)ccc2F)nc(NS(C)(=O)=O)n1 (single isomer, unassigned) [Example 23, N-(4-((S*)-2-(2,5-Difluorophenyl)propyl)-6-(((R)-1-hydroxy-4-methylpentan-2-yl)amino)-1,3,5-triazin-2-yl)methanesulfonamide]",548 nM
15,"COc1ccc(C(C)Cc2nc(N[C@@H](CO)CC(C)C)nc(NS(C)(=O)=O)n2)c2cccnc12 (stereo partly drawn) [Example 97, N-(4-(((R)-1-Hydroxy-4-methylpentan-2-yl)amino)-6-(2-(8-methoxyquinolin-5-yl)propyl)-1,3,5-triazin-2-yl)methanesulfonamide]",90 nM
16,"CC(C)C[C@H](CO)Nc1nc(CC(C)c2ccc(C3COC3)cc2)nc(NS(C)(=O)=O)n1 (stereo partly drawn) [Example 57, N-(4-(((R)-1-Hydroxy-4-methylpentan-2-yl)amino)-6-(2-(4-(oxetan-3-yl)phenyl)propyl)-1,3,5-triazin-2-yl)methanesulfonamide]",111 nM
17,"CC(C)C[C@H](CO)Nc1nc(CC(C)c2ccc(CC#N)cc2)nc(NS(C)(=O)=O)n1 (stereo partly drawn) [Example 55, N-(4-(2-(4-(Cyanomethyl)phenyl)propyl)-6-(((R)-1-hydroxy-4-methylpentan-2-yl)amino)-1,3,5-triazin-2-yl)methanesulfonamide]",139 nM
18,"CC(C)C[C@H](CO)Nc1nc(CC(C)c2ccc(N3CCNCC3)cc2)nc(NS(C)(=O)=O)n1 (stereo partly drawn) [Example 54, N-(4-(((R)-1-Hydroxy-4-methylpentan-2-yl)amino)-6-(2-(4-(piperazin-1-yl)phenyl)propyl)-1,3,5-triazin-2-yl)methanesulfonamide]",153 nM
19,"COc1cc(F)ccc1C(C)Cc1nc(N[C@@H](CO)CC(C)C)nc(NS(C)(=O)=O)n1 (stereo partly drawn) [Example 162, N-(4-(2-(4-Fluoro-2-methoxyphenyl)propyl)-6-(((R)-1-hydroxy-4-methylpentan-2-yl)amino)-1,3,5-triazin-2-yl)methanesulfonamide]",1320 nM
20,"CNC(=O)c1ccc(C(C)Cc2nc(N[C@@H](CO)CC(C)C)nc(NS(C)(=O)=O)n2)cc1F (stereo partly drawn) [Example 120, 2-Fluoro-4-(1-(4-(((R)-1-hydroxy-4-methylpentan-2-yl)amino)-6-(methylsulfonamido)-1,3,5-triazin-2-yl)propan-2-yl)-N-methylbenzamide]",230 nM
21,"COc1ccc(C(C)Cc2nc(N[C@@H](CO)CC(C)C)nc(NS(C)(=O)=O)n2)cc1 (stereo partly drawn) [Example 113, N-(4-(((R)-1-Hydroxy-4-methylpentan-2-yl)amino)-6-(2-(4-methoxyphenyl)propyl)-1,3,5-triazin-2-yl)methanesulfonamide]",184 nM
22,"COc1cccc(C(C)Cc2nc(N[C@@H](CO)CC(C)C)nc(NS(C)(=O)=O)n2)n1 (stereo partly drawn) [Example 166, N-(4-(((R)-1-Hydroxy-4-methylpentan-2-yl)amino)-6-(2-(6-methoxypyridin-2-yl)propyl)-1,3,5-triazin-2-yl)methanesulfonamide]",726 nM
23,"CC(C)C[C@H](CO)Nc1nc(C[C@@H](C)c2c(F)ccc(F)c2F)nc(NS(C)(=O)=O)n1 (single isomer, unassigned) [Example 42, N-(4-(((R)-1-Hydroxy-4-methylpentan-2-yl)amino)-6-((R*)-2-(2,3,6-trifluorophenyl)propyl)-1,3,5-triazin-2-yl)methanesulfonamide]",30 nM
24,"CC(C)C[C@H](CO)Nc1nc(CC(C)c2cccc(F)c2)nc(NS(C)(=O)=O)n1 (stereo partly drawn) [Example 58, N-(4-(2-(3-Fluorophenyl)propyl)-6-(((R)-1-hydroxy-4-methylpentan-2-yl)amino)-1,3,5-triazin-2-yl)methanesulfonamide]",105 nM
25,"CC(C)C[C@H](CO)Nc1nc(CC(C)c2ccc(CO)c(F)c2)nc(NS(C)(=O)=O)n1 (stereo partly drawn) [Example 133, N-(4-(2-(3-Fluoro-4-(hydroxymethyl)phenyl)propyl)-6-(((R)-1-hydroxy-4-methylpentan-2-yl)amino)-1,3,5-triazin-2-yl)methanesulfonamide]",26 nM
26,"CC(C)C[C@H](CO)Nc1nc(CC(C)c2cccc3cccnc23)nc(NS(C)(=O)=O)n1 (stereo partly drawn) [Example 103, N-(4-(((R)-1-Hydroxy-4-methylpentan-2-yl)amino)-6-(2-(quinolin-8-yl)propyl)-1,3,5-triazin-2-yl)methanesulfonamide]",17 nM
27,"COCc1ccc(C(C)Cc2nc(N[C@@H](CO)CC(C)C)nc(NS(C)(=O)=O)n2)cc1 (stereo partly drawn) [Example 69, N-(4-(((R)-1-Hydroxy-4-methylpentan-2-yl)amino)-6-(2-(4-(methoxymethyl)phenyl)propyl)-1,3,5-triazin-2-yl)methanesulfonamide]",830 nM
28,"CC(C)C[C@H](CO)Nc1nc(CC(C)c2ccc(C(=O)N3CCOCC3)cc2)nc(NS(C)(=O)=O)n1 (stereo partly drawn) [Example 156, N-(4-(((R)-1-Hydroxy-4-methylpentan-2-yl)amino)-6-(2-(4-(morpholine-4-carbonyl)phenyl)propyl)-1,3,5-triazin-2-yl)methanesulfonamide]",1960 nM
